Earlier results in patent US20140271927A1, “COMPOSITION AND METHOD FOR TREATING NEUROPATHY” (priority 2013, published 2014).

Conditions: published studies reviewed

[Cr] [chromium]
lowering the HbgAlc: 1-2%
